System: HBV
Assay: HBV-DNA Antiviral Assay Using HepG2.117 Cells
Assay type: cell-based
Settings: Hepatitis B virus, HepG2.117, 96 h, intracellular HBV DNA by qPCR, day 4
Procedure: The following assay procedure describes the HBV antiviral assay, using HepG2.117 cells, which carry a stably integrated genotype D HBV genome under the control of a Tet-off promoter, and intracellular HBV DNA quantification as endpoint. Cell viability is assessed in parallel by measuring the intracellular ATP content using ATPlite (Perkin Elmer).
On day 0, HepG2.117 cells (which are maintained in routine cell culture with doxycycline present in the medium at a final concentration of 1 μg/mL) were seeded in 96-well plates (white with clear bottom) at a density of 2.0×10^4 cells/well (0.1 mL/well) in medium without doxycycline to induce pgRNA transcription and subsequent formation of HBV particles. The cells were incubated at 37° C. and 5% CO2.
On day 1, medium was removed from each well, the test articles were diluted in culture medium without doxcycyline and 100 μL was added to cell culture wells (9 concentrations, 4-fold dilution). For each plate, 6 untreated (merely DMSO) wells were included. The final concentration of DMSO in the culture medium was 2%. Each plate was prepared in duplicate (one for HBV DNA extraction, one for ATPlite measurement). The cells were incubated at 37° C. and 5% CO2 for 3 days.
On day 4, cell viability was assessed using ATPlite and cell lysates were prepared for HBV DNA extraction and subsequent quantification by qPCR.
Medium was removed from each well and 100 μL of 0.33% NP-40 in H2O was added to each well. Plates were sealed, incubated at 4° C. for 5 mins, vortexed extensively and centrifuged briefly. Next, 35 μL of lysate was added to 65 μL QuickExtract DNA Extraction Solution (Epicentre) in a PCR plate for each well. PCR plate was incubated at 65° C. for 6 mins, 98° C. for 2 mins and finally cooled to 4° C. HBV DNA was then quantified by qPCR with HBV-specific primers and probes as specified in Table 2 using the Bio-Rad SSOAdvanced Universal Probes Supermix on a CFX96 machine (Bio-Rad). The PCR cycle program consisted of 95° C. for 3 mins, followed by 40 cycles at 95° C. for 10 sec and 60° C. for 30 sec.
A DNA standard was prepared by dilution of an IDT gBlock corresponding to the amplicon with concentrations ranging from 10^2 to 10^8 copies/input (i.e. per 4 μL) and used to generate a standard curve by plotting Cq values vs. HBV DNA standard concentration. The quantity of HBV DNA in each sample was determined by interpolating from the standard curve.
Cell viability was calculated as follows: % Cell viability=(luminescence value of test sample)/(average luminescence value of 2% DMSO control)×100%. HBV DNA inhibition was calculated as follows: 100−(HBV DNA copy number of test sample)/(average HBV DNA copy number of 2% DMSO control)×100%. No normalization to entecavir was required due to the excellent dynamic window of this assay. The CC50, EC so and EC90 values were determined by dose-response curves fitted by GraphPad Prism using “log (agonist) vs. response—Variable slope”.

Row | SMILES | EC50 [nM]
1 | N#Cc1cc(C(=O)N2CCS(=O)(=O)[C@@](F)(c3ncc(Cc4ccccc4)s3)C2)ccc1Br [Compound 40b] | ≤ 100
2 | C[C@@H]1CS(=O)(=O)[C@H](c2cccs2)CN1C(=O)c1ccc(Br)c(Cl)c1 [Compound 26, (4-bromo-3-chloro-phenyl)-[(2S,5R)-5-methyl-1,1-dioxo-2-(2-thienyl)-1,4-thiazinan-4-yl]methanone] | 500 to 5000
3 | C[C@H]1CS(=O)(=O)[C@H](c2cccs2)CN1C(=O)Nc1ccc(F)c(Cl)c1 [Compound 20, (2S,5S)—N-(3-chloro-4-fluoro-phenyl)-5-methyl-1,1-dioxo-2-(2-thienyl)-1,4-thiazinane-4-carboxamide] | 500 to 5000
4 | CC(C)NC(=O)C1CN(C(=O)c2ccc(Br)c(Cl)c2)CCS1(=O)=O (stereo not shown) [Compound 1, 4-(4-bromo-3-chlorobenzoyl)-N-isopropylthiomorpholine-2-carboxamide 1,1-dioxide] | 500 to 5000
5 | O=C(c1ccc(Br)c(Cl)c1)N1CCS(=O)(=O)[C@@](F)(c2ncc(-c3ccccc3)s2)C1 [Compound 39] | 500 to 5000
6 | N#Cc1cc(C(=O)N2CCS(=O)(=O)[C@](F)(c3ncc(Cc4ccccc4-c4ncccn4)s3)C2)ccc1Br [Compound 45b] | 500 to 5000
7 | O=C(c1ccc(Br)c(Cl)c1)N1CCS(=O)(=O)[C@](F)(C(=O)NCCc2ccccc2)C1 [Compound 38a] | > 5000
8 | C[C@@H](c1ccccc1)c1cnc([C@]2(F)CN(C(=O)c3ccc(Br)c(Cl)c3)CCS2(=O)=O)s1 [Compound 41d] | 500 to 5000
9 | C[C@H](c1ccccc1)c1cnc([C@@]2(F)CN(C(=O)c3ccc(Br)c(Cl)c3)CCS2(=O)=O)s1 [Compound 41a] | ≤ 100
10 | O=C(c1ccc(Br)c(Cl)c1)N1CCS(=O)(=O)C(c2nccs2)C1 (stereo not shown) [Compound 27, (4-bromo-3-chloro-phenyl)-(1,1-dioxo-2-thiazol-2-yl-1,4-thiazinan-4-yl)methanone] | 100 to 500
11 | O=C(c1ccc(Br)c(Cl)c1)N1CCS(=O)(=O)C(c2nnco2)C1 (stereo not shown) [Compound 28, (4-bromo-3-chloro-phenyl)-[2-(1,3,4-oxadiazol-2-yl)-1,1-dioxo-1,4-thiazinan-4-yl]methanone] | 500 to 5000
12 | N#Cc1cc(C(=O)N2CCS(=O)(=O)[C@](F)(c3ncc(Cc4ccccc4)s3)C2)ccc1Br [Compound 40a] | 500 to 5000
13 | C[C@@H]1CS(=O)(=O)[C@H](c2cccs2)CN1C(=O)Nc1ccc(F)c(Cl)c1 [Compound 23, (2S,5R)-N-(3-chloro-4-fluorophenyl)-5-methyl-1,1-dioxo-2-(thiophen-2-yl)-1,4-thiomorpholine-4-carboxamide] | 500 to 5000
14 | O=C(Nc1ccccc1)C1CN(C(=O)c2ccc(Br)c(Cl)c2)CCS1(=O)=O (stereo not shown) [Compound 2, 4-(4-bromo-3-chlorobenzoyl)-N-phenylthiomorpholine-2-carboxamide 1,1-dioxide] | 500 to 5000
15 | C[C@@]1(C(=O)NCc2ccccc2)CN(C(=O)c2ccc(Br)c(Cl)c2)CCS1(=O)=O [Compound 33a] | 100 to 500
16 | O=C(NCc1ccccc1)C1CN(C(=O)c2ccc(Br)c(Cl)c2)CCS1(=O)=O (stereo not shown) [Compound 3, N-benzyl-4-(4-bromo-3-chlorobenzoyl)thiomorpholine-2-carboxamide 1,1-dioxide] | 100 to 500
17 | C[C@H](c1cnc([C@]2(F)CN(C(=O)c3ccc(Br)c(C#N)c3)CCS2(=O)=O)s1)c1ccccc1F [Compound 43d] | 500 to 5000
18 | O=C(c1ccc(Cl)cc1F)N1CCS(=O)(=O)C(c2cccs2)C1 (stereo not shown) [Compound 10b, (4-chloro-2-fluoro-phenyl)-[1,1-dioxo-2-(2-thienyl)-1,4-thiazinan-4-yl]methanone] | 500 to 5000
19 | C[C@H]1CS(=O)(=O)[C@@H](c2cccs2)CN1C(=O)Nc1ccc(F)c(Cl)c1 [Compound 21, (2R,5S)—N-(3-chloro-4-fluoro-phenyl)-5-methyl-1,1-dioxo-2-(2-thienyl)-1,4-thiazinane-4-carboxamide] | 100 to 500
20 | Cn1cnc(-c2ccc(C3CN(C(=O)Nc4ccc(F)c(Cl)c4)CCS3(=O)=O)s2)c1 (stereo not shown) [Compound 15a, N-(3-chloro-4-fluoro-phenyl)-2-[5-(1-methylimidazol-4-yl)-2-thienyl]-1,1-dioxo-1,4-thiazinane-4-carboxamide] | 500 to 5000
21 | C[C@H](c1cnc([C@@]2(F)CN(C(=O)c3ccc(Br)c(C#N)c3)CCS2(=O)=O)s1)c1ccccc1F [Compound 43b] | ≤ 100
22 | C[C@H](c1ccccc1)c1cnc([C@]2(F)CN(C(=O)c3ccc(Br)c(Cl)c3)CCS2(=O)=O)s1 [Compound 41c] | 500 to 5000
23 | C[C@]1(C(=O)NCc2ccccc2)CN(C(=O)c2ccc(Br)c(Cl)c2)CCS1(=O)=O [Compound 33b] | 500 to 5000
24 | O=C(NCCc1ccccc1)C1CN(C(=O)c2ccc(Br)c(Cl)c2)CCS1(=O)=O (stereo not shown) [Compound 4, 4-(4-bromo-3-chlorobenzoyl)-N-phenethylthiomorpholine-2-carboxamide 1,1-dioxide] | 500 to 5000

Same assay, conditions: intracellular HBV DNA by qPCR, day 4

Row | SMILES | EC50 [nM]
25 | O=C(c1ccc(Br)c(Cl)c1)N1CCS(=O)(=O)C(F)(c2ncc(Cc3ccccc3-c3ncccn3)s2)C1 (racemic) [Compound 44a, (rac-2R)-4-(4-bromo-3-chlorobenzoyl)-2-fluoro-2-(5-[[2-(pyrimidin-2-yl)phenyl]methyl]-1,3-thiazol-2-yl)-1λ^6-thiomorpholine-1,1-dione] | ≤ 100
26 | Cc1cc(Cl)ccc1C(=O)N1CCS(=O)(=O)C(c2cccs2)C1 (single isomer, unassigned) [Compound 12a, (4-chloro-2-methyl-phenyl)-[1,1-dioxo-2-(2-thienyl)-1,4-thiazinan-4-yl]methanone] | > 5000
27 | CC1(c2ncc(Cc3ccccc3)s2)CN(C(=O)c2ccc(Br)c(Cl)c2)CCS1(=O)=O (racemic) [Compound 36b, (4-bromo-3-chloro-phenyl)-[rac-(2R)-2-(5-benzylthiazol-2-yl)-2-methyl-1,1-dioxo-1,4-thiazinan-4-yl]methanone] | 100 to 500
28 | C[C@H](c1cnc(C2(F)CN(C(=O)c3ccc(Br)c(Cl)c3)CCS2(=O)=O)s1)c1ccccc1F (mixture of isomers) [Compound 42d, (rac-2S)-4-(4-bromo-3-chlorobenzoyl)-2-fluoro-2-[5-[(rac-1S)-1-(2-fluorophenyl)ethyl]-1,3-thiazol-2-yl]-1λ^6-thiomorpholine-1,1-dione] | 500 to 5000
29 | O=C(Nc1ccc(F)c(Cl)c1)N1CCS(=O)(=O)C(c2ccccc2)C1 (single isomer, unassigned) [Compound 18a, N-(3-chloro-4-fluoro-phenyl)-1, l-dioxo-2-phenyl-1,4-thiazinane-4-carboxamide] | 500 to 5000
30 | O=C(c1ccc(Br)c(Cl)c1)N1CCS(=O)(=O)C(c2ccccc2)C1 (single isomer, unassigned) [Compound 19a, (4-bromo-3-chloro-phenyl)-(1,1-dioxo-2-phenyl-1,4-thiazinan-4-yl)methanone] | 100 to 500
31 | O=C(c1ccc(Cl)c(F)c1)N1CCS(=O)(=O)C(c2cccs2)C1 (single isomer, unassigned) [Compound 7b, (4-chloro-3-fluoro-phenyl)-[1,1-dioxo-2-(2-thienyl)-1,4-thiazinan-4-yl]methanone] | 500 to 5000
32 | O=C(c1ccc(Cl)c(F)c1)N1CCS(=O)(=O)C(c2cccs2)C1 (single isomer, unassigned) [Compound 7a, (4-chloro-3-fluoro-phenyl)-[1,1-dioxo-2-(2-thienyl)-1,4-thiazinan-4-yl]methanone] | 100 to 500
33 | C[C@@H]1CS(=O)(=O)[C@](F)(c2ncc(Cc3ccccc3)s2)CN1C(=O)c1ccc(Br)c(Cl)c1 (stereo in doubt) [Compound 47a, (4-bromo-3-chloro-phenyl)-[(rac-2S,5R)-2-(5-benzylthiazol-2-yl)-2-fluoro-5-methyl-1,1-dioxo-1,4-thiazinan-4-yl]methanone] | > 5000
34 | C[C@@H](c1cnc([C@@]2(F)CN(C(=O)c3ccc(Br)c(Cl)c3)CCS2(=O)=O)s1)c1ccccc1F (racemic) [Compound 42a, (rac-2R)-4-(4-bromo-3-chlorobenzoyl)-2-fluoro-2-[5-[(rac-1R)-1-(2-fluorophenyl)ethyl]-1,3-thiazol-2-yl]-1λ^6-thiomorpholine-1,1-dione] | ≤ 100
